# In patent publication US20260374754A1, “N-((ISOQUINOLIN-6-YL)METHYL)-1H-PYRAZOLE-4-CARBOXAMIDE DERIVATIVES AS PLASMA KALLIKREIN INHIBITORS FOR THE TREATMENT OF HEREDITARY ANGIODEMA” (Takeda Pharmaceutical Company Limited, priority 2022, published 2026):
# Target: human activated kallikrein enzyme (Homo sapiens, UniProt P03952)
# Test: Inhibition of human activated plasma kallikrein, fluorogenic PFR-AMC substrate, 500 pM enzyme format
# Format: biochemical
# Settings: 500 pM activated kallikrein; 300 μM PFR-AMC; 30 min preincubation; 10 min room temperature; pH 7.5; read-out: Primary Dose Response Assay: Average EC50
# Procedure: Compounds were evaluated for inhibition of the human activated kallikrein enzyme in two formats of an assay employing a fluorogenic peptide substrate. In one assay format, the concentrations of reagents were as follows: 20 mM Tris pH 7.5, 1 mM EDTA, 150 mM sodium chloride, 0.1% PEG-400, 0.1% Triton X-100, 500 pM activated kallikrein enzyme, 300 μM Pro-Phe-Arg-7-amido-4-methylcoumarin (PFR-AMC) substrate. Prior to reaction initiation with substrate, enzyme and inhibitors were preincubated for 30 min at room temperature. After initiation with substrate, reactions were incubated for 10 min at room temperature and fluorescence emission at 460 nm from 380 nm excitation measured with a microplate reader. In another assay format, the concentrations of reagents were as follows: 20 mM Tris pH 7.5, 1 mM EDTA, 150 mM sodium chloride, 0.1% PEG-400, 0.1% Triton X-100, 5 pM activated kallikrein enzyme, 300 uM PFR-AMC substrate. Prior to reaction initiation with substrate, enzyme and inhibitors were preincubated for 30 min at room temperature. After initiation with substrate, reactions were incubated for 18 hr at room temperature and fluorescence emission at 460 nm from 380 nm excitation measured with a microplate reader.
# Table 35 provides the results of the assay in the format with 500 pM activated kallikrein assay.
# human activated kallikrein enzyme, sequence (P03952 391-638 limits assumed): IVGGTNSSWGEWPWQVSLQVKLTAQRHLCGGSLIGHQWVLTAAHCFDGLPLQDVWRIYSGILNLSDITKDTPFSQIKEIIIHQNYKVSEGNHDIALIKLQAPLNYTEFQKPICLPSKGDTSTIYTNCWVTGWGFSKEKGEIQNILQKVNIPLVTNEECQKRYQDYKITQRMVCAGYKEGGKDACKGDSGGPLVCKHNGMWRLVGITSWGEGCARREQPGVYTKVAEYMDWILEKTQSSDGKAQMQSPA
# human activated kallikrein enzyme, sequence (P03952 20-390 partner limits assumed): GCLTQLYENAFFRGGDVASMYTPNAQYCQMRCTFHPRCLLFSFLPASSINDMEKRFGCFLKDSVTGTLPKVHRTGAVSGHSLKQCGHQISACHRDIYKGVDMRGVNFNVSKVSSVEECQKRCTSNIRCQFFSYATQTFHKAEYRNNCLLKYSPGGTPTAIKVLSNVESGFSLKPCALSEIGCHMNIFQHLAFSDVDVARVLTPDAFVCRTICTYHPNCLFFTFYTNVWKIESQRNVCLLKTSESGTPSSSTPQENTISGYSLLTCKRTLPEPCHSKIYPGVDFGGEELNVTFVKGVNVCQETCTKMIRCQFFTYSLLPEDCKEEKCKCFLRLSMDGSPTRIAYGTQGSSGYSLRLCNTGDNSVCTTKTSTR
row,Compound,EC50
1,"Cc1cc2c(N)nccc2c(C)c1CNc1cc(NCc2nc3ccccc3s2)ncn1 [Example 319, N^4-((1-amino-5,7-dimethylisoquinolin-6-yl)methyl)-N6-(benzo[d]thiazol-2-ylmethyl)pyrimidine-4,6-diamine]",100 to 1000 nM
2,"Cc1cc2c(N)nccc2c(C)c1CNC(=O)c1cnn(Cc2ccc(N3CCCC3)nc2)c1C(F)(F)F [Example 193, N-((1-amino-5,7-dimethylisoquinolin-6-yl)methyl)-1-((6-(pyrrolidin-1-y1)pyridin-3-yl)methyl)-5-(trifluoromethyl)-1H-pyrazole-4-carboxamide]",100 to 1000 nM
3,"Cc1cc2c(N)nccc2c(C)c1CNC(=O)c1cnn(Cc2oc3ccccc3c2C)c1 [Example 47, N-((1-amino-5,7-dimethylisoquinolin-6-yl)methyl)-1-((3-methylbenzofuran-2-yl)methyl)-1H-pyrazole-4-carboxamide]",10 to 100 nM
4,Cc1cc2c(N)nccc2c(C)c1CNc1nccc2c1cnn2Cc1cn2cc(C3CC3)ccc2n1 [Example 266],100 to 1000 nM
5,"Cc1c(CNC(=O)c2cnn(Cc3ccccc3)c2)c(C2CC2)cc2c(N)nccc12 [Example 174, N-((1-amino-7-cyclopropyl-5-methylisoquinolin-6-yl)methyl)-1-benzyl-1H-pyrazole-4-carboxamide]",10 to 100 nM
6,"COc1cccc(Cn2cc(C(=O)NCc3c(C)cc4c(N)nccc4c3C)cn2)c1 [Example 43, N-((1-amino-5,7-dimethylisoquinolin-6-yl)methyl)-1-(3-methoxybenzyl)-1H-pyrazole-4-carboxamide]",10 to 100 nM
7,"Cc1cc2c(N)nccc2c(C)c1CNc1cc(C(F)(F)c2cn3cc(C4CC4)ccc3n2)ncn1 [Example 404, 6-(((6-((6-cyclopropylimidazo[1,2-a]pyridin-2-yl)difluoromethyl)pyrimidin-4-yl)amino)methyl)-5,7-dimethylisoquinolin-1-amine]",10 to 100 nM
8,"Cc1ccc2nc(Cn3cc(C(=O)NCc4c(C)cc5c(NC(=O)OCC(C)C)nccc5c4C)cn3)cn2c1 [Example 5, isobutyl (5,7-dimethyl-6-((1-((6-methylimidazo[1,2-a]pyridin-2-yl)methyl)-1H-pyrazole-4-carboxamido)methyl)isoquinolin-1-yl)carbamate]",10 to 100 nM
9,"Cc1cc2c(N)nccc2c(C)c1CNc1cc(OCc2nc3ccc(C4CC4)cn3n2)nc(C(=O)O)n1 [Example I-486, 4-(((1-amino-5,7-dimethylisoquinolin-6-yl)methyl)amino)-6-((6-cyclopropyl-[1,2,4]triazolo[1,5-a]pyridin-2-yl)methoxy)pyrimidine-2-carboxylic acid]",1 to 10 nM
10,"Cc1cc2c(N)nccc2c(C)c1CNC(=O)c1cnn(Cc2ccc(CC(=O)N3C[C@@H]4[C@H](C3)[C@@H]4C(=O)O)cc2)c1 [Example 210, (1R,5S,6s)-3-(2-(4-((4-(((1-amino-5,7-dimethylisoquinolin-6-yl)methyl)carbamoyl)-1H-pyrazol-1-yl)methyl)phenyl)acetyl)-3-azabicyclo[3.1.0]hexane-6-carboxylic acid]",1 to 10 nM
11,"Cc1cc2c(N)nccc2c(C)c1CNc1cc(NCc2ccccc2)cnn1 [Example 448, N^3-((1-amino-5,7-dimethylisoquinolin-6-yl)methyl)-N5-benzylpyridazine-3,5-diamine]",100 to 1000 nM
12,"Cc1ccc(Cn2cc(C(=O)NCc3c(C)cc4c(N)nccc4c3C)cn2)cc1C(F)(F)F [Example 36, N-((1-amino-5,7-dimethylisoquinolin-6-yl)methyl)-1-(4-methyl-3-(trifluoromethyl)benzyl)-1H-pyrazole-4-carboxamide]",1 to 10 nM
13,"Cc1ccn2cc(CNc3cc(NCc4c(C)cc5c(N)nccc5c4C)ncn3)nc2c1 [Example 322, N^4-((1-amino-5,7-dimethylisoquinolin-6-yl)methyl)-N^6-((7-methylimidazo[1,2-a]pyridin-2-yl)methyl)pyrimidine-4,6-diamine]",1 to 10 nM
14,"Cc1cc2c(N)nccc2c(C)c1CNC(=O)c1cnn(C(F)(F)c2ccc(Br)cc2)c1 [Example I-469, N-((1-amino-5,7-dimethylisoquinolin-6-yl)methyl)-1-((4-bromophenyl)difluoromethyl)-1H-pyrazole-4-carboxamide]",100 to 1000 nM
15,"Cc1cc2c(N)nccc2c(C)c1CNc1cc(NCc2ccc(C3CC3)cc2)ncn1 [Example 339, N^4-((1-amino-5,7-dimethylisoquinolin-6-yl)methyl)-N^6-(4-cyclopropylbenzyl)pyrimidine-4,6-diamine]",10 to 100 nM

# Other lines, results leading:
row,EC50,Compound
1,< 1 nM,"Cc1cc2c(N)nccc2c(C)c1CNc1cnnc(NCc2ccc(Cn3ccccc3=O)cc2)c1 [Example 537, 1-(4-(((5-(((1-amino-5,7-dimethylisoquinolin-6-yl)methyl)amino)pyridazin-3-yl)amino)methyl)benzyl)pyridin-2(1H)-one]"
2,< 1 nM,"Cc1cc2c(N)nccc2c(C)c1CNC(=O)c1ccnc(Cc2ccc3ncc(Cl)cc3c2)c1 [Example 197, N-((1-amino-5,7-dimethylisoquinolin-6-yl)methyl)-2-((3-chloroquinolin-6-yl)methyl)isonicotinamide]"
3,< 1 nM,"Cc1cc2c(N)nccc2c(C)c1CNC(=O)c1cnn(Cc2cn3cc(C(F)(F)F)ccc3n2)c1 [Example 201, N-((1-amino-5,7-dimethylisoquinolin-6-yl)methyl)-1-((6-(trifluoromethyl)imidazo[1,2-a]pyridin-2-yl)methyl)-1H-pyrazole-4-carboxamide]"
4,< 1 nM,"Cc1cc2c(N)nccc2c(C)c1CNc1cc(OCc2ccc(CC(=O)N(C)C)cc2)cnn1 [Example I-465, 2-(4-(((6-(((1-amino-5,7-dimethylisoquinolin-6-yl)methyl)amino)pyridazin-4-yl)oxy)methyl)phenyl)-N,N-dimethylacetamide]"
5,< 1 nM,"Cc1cc2c(N)nccc2c(C)c1CNc1cc(NCc2ccc(Cn3cccn3)cc2)cnn1 [Example 447, N^5-(4-((1H-pyrazol-1-yl)methyl)benzyl)-N^3-((1-amino-5,7-dimethylisoquinolin-6-yl)methyl)pyridazine-3,5-diamine]"
6,< 1 nM,"Cc1cc2c(N)nccc2c(C)c1CNC(=O)c1cn(Cc2ccc(CC(=O)N3CC4CC4C3)cc2)cc1F (stereo not drawn) [Example I-479, 1-(4-(2-(3-azabicyclo[3.1.0]hexan-3-yl)-2-oxoethyl)benzyl)-N-((1-amino-5,7-dimethylisoquinolin-6-yl)methyl)-4-fluoro-1H-pyrrole-3-carboxamide]"
7,1 to 10 nM,"Cc1cc2c(N)nccc2c(C)c1CNc1cc(NCc2ccc(CO)cc2)ncn1 [Example I-461, (4-(((6-(((1-amino-5,7-dimethylisoquinolin-6-yl)methyl)amino)pyrimidin-4-yl)amino)methyl)phenyl)methanol]"
8,1 to 10 nM,"Cc1cc2c(N)nccc2c(C)c1CNc1cc(NCc2ccc(Cc3ccc(Cl)cn3)cc2)ncn1 [Example 369, N^4-((1-amino-5,7-dimethylisoquinolin-6-yl)methyl)-N^6(4-((5-chloropyridin-2-yl)methyl)benzyl)pyrimidine-4,6-diamine]"
9,< 1 nM,"CCOC(=O)c1nc(NCc2c(C)cc3c(N)nccc3c2C)cc(OCc2cn3cc(C4CC4)cnc3n2)n1 [Example 489, ethyl 4-(((1-amino-5,7-dimethylisoquinolin-6-yl)methyl)amino)-6-((6-cyclopropylimidazo[1,2-a]pyrimidin-2-yl)methoxy)pyrimidine-2-carboxylate]"
10,< 1 nM,"Cc1ccc2nc(C(CO)n3cc(C(=O)NCc4c(C)cc5c(N)nccc5c4C)cn3)cn2c1 (stereo not drawn) [Example 130, N-((1-amino-5,7-dimethylisoquinolin-6-yl)methyl)-1-(2-hydroxy-1-(6-methylimidazo[1,2-a]pyridin-2-yl)ethyl)-1H-pyrazole-4-carboxamide]"
11,1 to 10 nM,"COc1nc2ccccc2cc1Cn1cc(C(=O)NCc2c(C)cc3c(N)nccc3c2C)cn1 [Example 67, N-((1-amino-5,7-dimethylisoquinolin-6-yl)methyl)-1-((2-methoxyquinolin-3-yl)methyl)-1H-pyrazole-4-carboxamide]"
12,< 1 nM,"Cc1cc2c(N)nccc2c(C)c1CNc1cc(OCc2ccc(Oc3cccn(C)c3=O)cc2)cnn1 [Example 427, 3-(4-(((6-(((1-amino-5,7-dimethylisoquinolin-6-yl)methyl)amino)pyridazin-4-yl)oxy)methyl)phenoxy)-1-methylpyridin-2(1H)-one]"
13,< 1 nM,"Cc1cc2c(N)nccc2c(C)c1CNc1cc(NC(C)c2ccc3ncc(Cl)cc3c2)ncn1 (stereo not drawn) [Example 310, N^4-((1-amino-5,7-dimethylisoquinolin-6-yl)methyl)-N^6-(1-(3-chloroquinolin-6-yl)ethyl)pyrimidine-4,6-diamine]"
14,< 1 nM,"Cc1cc(Cn2cc(C(=O)NCc3c(C)cc4c(N)nccc4c3C)cn2)cc(C)c1Cc1ccccn1 [Example 169, N-((1-amino-5,7-dimethylisoquinolin-6-yl)methyl)-1-(3,5-dimethyl-4-(pyridin-2-ylmethyl)benzyl)-1H-pyrazole-4-carboxamide]"
15,< 1 nM,"Cc1cc2c(N)nccc2c(C)c1CNC(=O)c1cnn(Cc2ccc(CC(=O)N3CCC3)c(Cl)c2)c1 [Example I-473, N-((1-amino-5,7-dimethylisoquinolin-6-yl)methyl)-1-(4-(2-(azetidin-1-yl)-2-oxoethyl)-3-chlorobenzyl)-1H-pyrazole-4-carboxamide]"
